Measured values as given in patent US8981053B2, “Molecules specifically binding pancreatic beta cells biomarkers” (Universite de Mons, priority 2011, dated 2015).
Where no end group is shown, it is not given here.

What was measured:
[1] = target: T1, FXYD2-gamma-a regulatory subunit expressed by CAPAN-2 cells (Homo sapiens, UniProt P54710); assay: Immunocytochemistry on CAPAN2 and PANC1 cells; type: cell-based; conditions: CAPAN2 cells versus PANC1 cells
T1 construct: the FXYD2-gamma-a regulatory subunit expressed by CAPAN-2 cells; endogenous in cells; host or cells: CAPAN-2 cells (PANC1 cells as comparison)
T1 sequence (P54710 whole entry): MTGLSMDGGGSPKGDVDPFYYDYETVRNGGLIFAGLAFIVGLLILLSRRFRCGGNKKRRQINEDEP
Description: (§1) The specificity of P88, P89, P90 and a polyclonal antibody against the N-terminal sequence of FXYD2-gamma-a protein to the FXYD2-gamma-a regulatory subunit expressed by CAPAN-2 cells was checked by immunocytochemistry and immunofluorescence tests.
Immunocytochemistry tests were performed using the biotinylated peptides. An anti-biotine antibody was used and was recognized by a secondary antibody coupled to the peroxidase. The polyclonal antibody against the N-terminal sequence of FXYD2-gamma-a protein to the FXYD2-gamma-a was detected using a secondary biotinylated antibody that fixes a complex containing streptavidin, biotin and peroxidase. The latter gives a brown color in the presence of 3,3′-diaminobenzidine (DAB).

FXYD2-gamma-a subunit = FXYD2-gamma-a subunit (Homo sapiens, UniProt P54710); assay: Dissociation constant (Kd) determination of phage display clone and synthetized peptides; conditions: binding to FXYD2-gamma-a subunit
Chain of FXYD2-gamma-a subunit (P54710 whole entry, the tested form may be a part): as the sequence (P54710 whole entry) above
Description: Commercially available peptide libraries were screened and peptides binding the FXYD2-gamma-a subunit were retained for further analysis. The FXYD2-gamma-a is a regulating subunit of the Na—K-ATPase that contains 66 amino acids, from which 11 are specific to human beta-cells (Flamez D et al. DOI 10.1007/s00125-010-1714-z). Commercially available linear heptapeptide libraries were screened via M 13 phage display methodology. After 4 screening rounds, 42 clones were selected for further characterization: sequencing and dissociation constant (Kd) determination. […] The latter were synthetized either separately (called P89 and P90) or fused via a short sequence of the pill protein (called P88). All three synthetized peptides were further tested. […]

[2] = target: T1, FXYD2-gamma-a regulatory subunit expressed by CAPAN-2 cells; assay: Immunofluorescence on CAPAN2 and PANC1 cells with ImageJ semi-quantitative analysis (RRFL); type: cell-based
Description: as §1
Each secondary antibody described above was coupled to a fluorophore such as fluorescein which gives a green color at a certain wavelength. DAPI (4′,6-diamidino-2-phenylindole) was also used in order to stain the cell nuclei in blue. This allowed us to compare the localization of the blue and the green coloration. […] Therefore, P88 interacts specifically with CAPAN2 cells and is thus specific to the FXYD2-gamma-a biomarker.
The images obtained by immunofluorescence test were analyzed using ImageJ software in order to semi-quantitatively evaluate the fluorescent labeling. The following equation was used to calculate the relative rate of fluorescent labeling (RRFL): RRFL=(SIsample/Ncells)/(SIblanc/Ncells) Wherein SI is the signal intensity, N is the number of cells and blanc is the negative control sample.
The percentage of RRFL obtained when P88 was used at two different concentrations (5 μM and 10 μM) was determined compared to the RRFL obtained when the polyclonal antibody against the N-terminal sequence of FXYD2-gamma-a was used (FIG. 3 B). The ratio between the RRFL measured in CAPAN2 cells and the RRFL measured in PANC1 cells was also determined (FIG. 3 C). […] The ratio CAPAN2/PANC1 confirmed the labeling specificity of P88 compared to the used polyclonal antibody.

[3] = tested on: human pancreatic Langerhans islets; assay: Immunohistochemistry on human pancreatic histological sections; type: cell-based
Description: (§2) A co-localization of peptide P88, insulin and glucagon was performed on human pancreatic histological sections using immunohistochemistry and immunofluorescence tests. Insulin is a hormone produced by the beta cells of Langerhans islets while glucagon is produced by the alpha cells of the same islets.
The marking is the same as the one obtained when the antibody anti-insulin was used (FIG. 4).
In other immunohistochemistry tests, the anti-FXYD2-gamma-a polyclonal antibody was used. […] Therefore, P88 is highly specific to the pancreatic beta cells FXYD2-gamma-a biomarker.

[4] = tested on: human pancreatic beta cells; assay: Immunofluorescence co-localization on human pancreatic histological sections; type: cell-based
Description: as §2
Immunofluorescence tests were performed on human pancreatic histological sections such as P88 was detected together with insulin or glucagon. In another test, insulin was detected together with the polyclonal antibody against the N-terminal sequence of FXYD2-gamma-a. Insulin (specific of beta cells) was detected with a primary anti-insulin antibody which was detected using a secondary antibody coupled to Texas Red. Glucagon was detected with a primary anti-glucagon antibody which was also detected using a secondary antibody coupled to Texas Red. The latter gives red color to the antigenic sites. Biotinylated P88 was detected using a primary antibody anti-biotin and a secondary antibody coupled to fluorescein. The polyclonal antibody against the N-terminal sequence of FXYD2-gamma-a was also detected using a secondary antibody coupled to fluorescein. Antigenic sites marked by fluorescein are visualized in green color. DAPI was also used in order to stain the cells nuclei in blue. Pictures obtained with each staining (red, green and blue) were superimposed.

CAPAN2 cells [5] = assay: MRI of CAPAN2 cells labeled with contrast agents; type: cell-based, human; conditions: for MRI labeling of CAPAN2 cells: 2×10^6 to 0.1×10^6 cells per 100 μl; for transverse relaxation rates of labeled CAPAN2 cells compared to USPIO-PEG: independent from the concentration of CAPAN2 cells
Description: (§3) CAPAN2 cells were labeled with USPIO nanoparticles coupled to P88 or with carboxy silane coated iron oxide nanoparticles coupled to P88. USPIO-polyethylene glycol (PEG) were used as negative contrast agent. Labeled cells were visualized by MRI and the concentration of contrast agents bound to the cells was determined by iron dosage.
CAPAN2 cells were used with different concentrations ranging from 2×10^6 cell per 100 μl to 0.1×10^6 cells per 100 μl corresponding respectively to the beta cell concentration in healthy pancreas and in a pancreas with diabetes. […] The labeling was also clearly observed with the lowest CAPAN2 cell concentration.

CAPAN2 cells [6] = assay: Iron dosage of CAPAN2 cells labeled with contrast agents; type: cell-based, human; conditions: contrast agent 1 mM, 2 mM and 3 mM
Description: as §3
This confirms the specificity of P88 to the pancreatic beta cells biomarker FXYD2-gamma-a and the efficacy of using the P88 coupled to a contrast agent in MRI.

human Langerhans islets = assay: MRI of human Langerhans islets labeled with contrast agents; type: cell-based; conditions: for transverse relaxation rates of labeled human Langerhans islets compared to USPIO-PEG: independent from concentration and purity of islets
Description: Contrast agents USPIO and carboxy silane coated iron oxide nanoparticles coupled to the peptide P88 were tested for their interaction with the human Langerhans islets and compared to the use of USPIO-PEG contrast agent.

[7] = tested on: beta cells of Langerhans islets; assay: Co-localization of contrast agent labeled Langerhans islets with insulin (anti-PEG antibody); type: cell-based, human; conditions: fluorescein, insulin Texas red
Description: Co-localization tests were performed where antibodies anti-PEG were added to the Langrehans islets labeled with USPIO-P88 nanoparticles, the Langrehans islets labeled with carboxy silane coated iron oxide nanoparticles coupled to the peptide P88 and to the Langrehans islets labeled with USPIO-PEG. A secondary antibody that recognizes the anti-PEG antibody and coupled to the fluorescein was also used which created a green fluorescence.
Insulin was labeled with primary anti-insulin antibody and a secondary antibody coupled to Texas red which created a red fluorescence.

[8] = target: FXYD2-gamma-a regulatory subunit expressed by CAPAN-2 cells and human pancreatic beta cells (human) (UniProt P54710); assay: immunofluorescence on CAPAN2 cells, ImageJ semi-quantitative analysis, P88 at 5 µM
Chain of FXYD2-gamma-a regulatory subunit expressed by CAPAN-2 cells and human pancreatic beta cells (human) (P54710 whole entry): as above

[9] = target: FXYD2-gamma-a regulatory subunit expressed by CAPAN-2 cells and human pancreatic beta cells (human) (UniProt P54710); assay: immunofluorescence on CAPAN2 cells, ImageJ semi-quantitative analysis, P88 at 10 µM
[10] = target: FXYD2-gamma-a subunit (target of the phage display screening and Kd determination) (human) (UniProt P54710); assay: phage clone characterisation after M13 phage display screening; method not stated
Chain of FXYD2-gamma-a subunit (target of the phage display screening and Kd determination) (human) (P54710 whole entry): as above

[11] = target: FXYD2-gamma-a subunit (target of the phage display screening and Kd determination) (human) (UniProt P54710); assay: synthetic peptide; method not stated

LPLSRHY [P89, LPLSRHY] was tested, and the “specificity of interaction (brown DAB coloration)” value (shortened to “specificity of interaction”) [1] was “less specific compared to P88”.

With LPLSRHYGGGSVPFYSHSNTHHTSM [P88] the Kd (FXYD2-gamma-a subunit) was 1890 nM, the “specificity of interaction” value [1] was “more localized in the CAPAN2 cells” and the “RRFL higher than the RRFL produced by the anti-FXYD2-gamma-a polyclonal antibody” value ([2]; CAPAN2 cells, 5 μM) was 791%. The “RRFL higher than the RRFL produced by the anti-FXYD2-gamma-a polyclonal antibody” value ([2]; CAPAN2 cells, 10 μM) was 945%, the “green fluorescence pattern in CAPAN 2 cells” value ([2]; CAPAN2 cells, DAPI nuclear stain) was “correspondent to the blue fluorescent pattern of DAPI” and the “green fluorescence in PANC1 cells” value ([2]; PANC1 cells) was “few green fluorescent spots”. The “marking of pancreatic Langerhans islets” value [3] was “high specific marking”, the “co-localization with glucagon (anti-glucagon antibody)” value [4] was “did not co-localize” and the “co-localization with insulin (anti-insulin antibody)” value [4] was “perfect co-localization”.

In the case of NTHHTSM [P90], the “dissociation constant (Kd)” value (FXYD2-gamma-a subunit) is reported as “could not be determined” and the “specificity of interaction” value [1] is reported as “less specific compared to P88”.

With “USPIO-P88: USPIO nanoparticles coupled to P88, MRI contrast agent (LPLSRHYGGGSVPFYSHSNTHHTSM; also: coupled to USPIO nanoparticles, site not given here)” the “MRI labeling of CAPAN2 cells” value (CAPAN2 cells [5]) was “clear labeling”, the “transverse relaxation rates of labeled CAPAN2 cells compared to USPIO-PEG” value (CAPAN2 cells [5]) was “higher” and the “amount of iron captured by the CAPAN2 cells compared to USPIO-PEG” value (CAPAN2 cells [6]) was “always higher”. For the same molecule, the “MRI labeling of human Langerhans islets compared to USPIO-PEG” value (human Langerhans islets; also at low concentration and in non-pure islet samples) was “clear difference”, the “transverse relaxation rates of labeled human Langerhans islets compared to USPIO-PEG” value (human Langerhans islets) was “higher” and the “co-localization of labeled Langerhans islets with the red fluorescence of insulin” value [7] was “perfectly co-localized”.

“silane coated iron oxide nanoparticles-P88: carboxy silane coated iron oxide nanoparticles coupled to P88 (LPLSRHYGGGSVPFYSHSNTHHTSM; also: coupled to carboxy silane coated iron oxide nanoparticles, site not given here)” was tested, and the “MRI labeling of CAPAN2 cells” value (CAPAN2 cells [5]) was “clear labeling”, the “transverse relaxation rates of labeled CAPAN2 cells compared to USPIO-PEG” value (CAPAN2 cells [5]) was “higher” and the “amount of iron captured by the CAPAN2 cells compared to USPIO-PEG” value (CAPAN2 cells [6]) was “always higher”. For the same molecule, the “transverse relaxation rates of labeled human Langerhans islets compared to USPIO-PEG” value (human Langerhans islets) was “higher” and the “co-localization of labeled Langerhans islets with the red fluorescence of insulin” value [7] was “perfectly co-localized”.

LPLSRHYGGGSVPFYSHSNTHHTSM (also: biotinylated in ICC/IHC/IF tests, site not given here) [P88] was tested, and the relative rate of fluorescent labeling (RRFL) in CAPAN2 cells against the anti-FXYD2-gamma-a polyclonal antibody [8] was 791 % higher and the relative rate of fluorescent labeling (RRFL) in CAPAN2 cells against the anti-FXYD2-gamma-a polyclonal antibody [9] was 945 % higher.

B1: selected M13 phage clone carrying 2 peptides (peptide)
peptide 1: LPLSRHY
peptide 2: NTHHTSM
Molecule B1 has a Kd [10] of 9.3 nM.

For LPLSRHY (also: biotinylated in ICC tests, site not given here) [P89], the Kd [11] was 109 µM.
